Where two headings read alike, the source gives them in different places.
Legend:
[1] = system: Human colon cancer HT-29 transplantable tumor; experiment: Human colon cancer HT-29 transplantable tumor in nude mice; conditions: HT-29 in nude mice, 60 mg/kg ig 9 times
Experimental: Experimental therapeutic action of the compound in the present invention on Human colon cancer HT-29 transplantable tumor in nude mice.
Take eugenic tumor tissues and cut into about 1.5 mm^3, and then incoculate subcutaneously at the right armpit of nude mice under the sterile conditions. The diameter of the transplantable tumor in nude mice was determined with a vernier caliper, and the animals were divided into groups after the tumors were grown to 100-300 mm^3. Using the method of measuring the tumor diameter, dynamically observe the antitumor effects of tested materials. The diameter of the tumor was determined three times every week and the mouse weight was weighed at the same time. […] The solvent was intragastrically administrated as the control for continuous 9 times. Equal amount of control was administrated in the negative control group.
Tumor volume (TV) is calculated as: TV=½×a×b^2, wherein a and b respectively represent length and width.
Relative tumor volume (RTV) is calculated as: RTV=TVt/TV0, wherein TV0 is the tumor volume when administrated according to different cages and TVt is the tumor volume measured each time.
Relative tumor reproduction rate T/C (%) is calculated as follows:
TRTV: RTV in the treatment group; CRTV: RTV in the negative control group.
The test results used relative tumor reproduction rate T/C (%) as evaluating indicator of anti-tumor activity.

[2] = system: human umbilical vein endothelial cell HUVEC; experiment: Lumen formation ability of HUVEC (Matrigel method); assay type: cell-based; conditions: Final concentration 1 x 1.0*10^(−5) mol/L
Description: 8. Inhibition effects of compounds on the lumen formation ability of human umbilical vein endothelial cell HUVEC
[Experimental principles] The human umbilical vein endothelial cells have ability of spontaneously forming blood lumen on Matrigel, which can be used to simulate the process of angiogenesis in vivo. We used Matrigel method to investigate the effects of the compound on the lumen formation ability of human umbilical vein endothelial cell HUVEC.
[Test materials] HUVEC (taking generation 3 to 5 cells for experiments after obtained from primary separation and cultured at 37 under the conditions of 5% CO2), Matrigel, cell culture medium M199.
(§1) [Tested compound] Compounds 1-38
(§2) [Positive control medicine] Sorafenib, compounds A′, B′, C′ with no substituent or only amino formyl in A ring
(§3) The inhibition rate is calculated as follows: […]

[3] = system: human high-metastic lung cancer cell 95D; experiment: Inhibition of human high-metastic lung cancer cell 95D migration (Boyden Chamber Transwell); assay type: cell-based; conditions: Final concentration 1 x 1.0*10^(−5) mol/L
Experimental: 5 Inhibition effects of compounds on human high-metastic lung cancer cell 95D migration
[Test materials] Boyden Chamber Transwell chamber (with pore size of 8 μm), human high-metastic lung cancer cell 95D cell strain, 1640 medium containing 10% FBS, 1640 medium containing no serum
as §1, §2, §3

mice S180 sarcoma = experiment: Experimental therapeutic action on S180 sarcoma mice; conditions: mice S180 sarcoma, 60 mg/kg orally for 9 days
Experimental: Experimental therapeutic action of the compound in the present invention on S180 sarcoma mice
18-25 g female ICR mice and well grown 7-11 day old mice sarcoma S180 tumor seeds were selected, and the seeds were inoculated into the subcutaneous at the right axillary. After inoculated 24 hours, these mice were randomly divided into cages and orally administrated 60 mg/kg for 9 days. On 10 day, the animals were killed and weighed, and the tumor weights were weighed to calculate average tumor weight in each group, followed by calculating the tumor inhibition rate according to the following formula and T test.

Raf-1(truncated) = experiment: Raf-1 inhibitor screening by chemoluminescence method; assay type: biochemical; conditions: Final concentration 1 x 1.0*10^−5 mol/ml
Description: 1. Inhibitory activity of the compound of the present invention on raf kinase
Raf-1 inhibitor screening by chemoluminescence method
Westernblot electrophoresis apparatus Rotaryshaker
Raf-1(truncated), Magnesium/ATP Cocktail, MEK1 unactive

[4] = system: renal carcinoma cell line GCR-1 transplanted tumor; assay type: in vivo, BALB/cA nude mice; conditions: BALB/cA nude mice; 60 mg/kg, 6 times every week for 3 weeks; Sorafenib oral 60 mg/kg
Experimental: 11. Tumor inhibition rate of medicines on renal carcinoma cell line GCR-1 transplanted tumor model in nude mice
(§4) [Test animals] female BALB/cA nude mice, 35-40 days old, with weight of 18-22g. There were 12 mice in the negative conrol group and 6 mice in the treatment group.
[Test method] […] The dosage of the medicine was 60 mg/kg, 6 times every week for 3 weeks. […] Equal amount of normal saline was administrated in the negative control group. Observe for one week after administration.

[5] = system: human liver cancer cell bel-7402 transplantation tumor; assay type: in vivo; conditions: 60 mg/kg
Experimental: 10. Tumor inhibition rate of tested compounds on human liver cancer cell bel-7402 transplantation tumor model in nude mice
as §4
(§5) The dosage of the compound was 60 mg/kg, 6 times every week for 3 weeks. […] Equal amount of normal saline was administrated in the negative control group. Observe for one week after administration.

[6] = system: human lung cancer cell strain A549; experiment: MTT assay, inhibition of growth of human lung cancer cell strain A549; assay type: cell-based
Experimental: 4. Using 3-(4,5-dimethylthiazol-2-yl)-2,5-diphenyl tetrazolium bromide assay (MTT) to detect the inhibition effects on the growth of human lung cancer cell strain A549
[Test materials] MTT working solution, F12 medium containing 10% FBS, continuous injectors
as §1, §2
The inhibition rate is calculated as follows:
(§6) Relative OD value of conrol well=OD value of control well−OD value of blank well
(§7) Relative OD value of drug well=OD value of drug well−OD value of blank well

[7] = system: human lung cancer A549 transplantation tumor; assay type: in vivo; conditions: BALB/cA nude mice; 60 mg/kg, 6 times every week for 3 weeks; Sorafenib oral 60 mg/kg
Experimental: 9. Tumor inhibition rate of tested compounds on human lung cancer A549 cell transplantation model in nude mice
as §4, §5

[8] = system: human umbilical vein endothelial cell HUVEC; experiment: Growth of human umbilical vein endothelial cell HUVEC by CCK8 method; assay type: cell-based; conditions: Final concentration 1 x 1.0*10^(−5) mol/L
Description: 7. Effects of tested compounds on the growth of human umbilical vein endothelial cell HUVEC cell by CCK8 method
[Test materials] CCK8, human umbilical vein endothelial cell HUVEC cell, 1640 medium containing 10% FBS
(§8) [Tested compound] Compounds 1-38 to be tested
as §2, §6, §7

lung cancer cell A549 = experiment: Effects on the adhesive ability of lung cancer cell A549; assay type: cell-based, human; conditions: Final concentration 1 x 1.0*10^(−5) mol/L
Experimental: 6. Effects of tested compounds on the adhesive ability of lung cancer cell A549
[Test materials] gelatin, CCK8, poly-lysine (PLL), A549 cell stains, 1640 medium containing 10% FBS
as §8, §2, §3
Dosing dosing cells without cell group (gelatin adhesive OD/PLL adhesion OD)−Dosing cell group (gelatin adhesive OD/PLL adhesion OD value)
Dosing dosing cells without cell group (gelatin adhesive OD/PLL adhesion OD value)

[9] = BALB/cA nude mice, 6 times every week for 3 weeks, Sorafenib oral 60 mg/kg
[10] = Final concentration 1 x 1.0*10^(−5) mol/L

Molecule	Relative tumor reproduction rate T/C (%) [1] [%]	Inhibition rate, lumen formation ability of HUVEC [2] [%]	Inhibition rate, 95D cell strain migration [3] [%]	Tumor growth inhibition rate (%) (mice S180 sarcoma)	Inhibition rate % on raf kinase (Raf-1(truncated)) [%]	Relative tumor reproduction rate T/C (%) on human renal carcinoma GCR-1 cell transplanted tumor model in nude mice [4] [%]	Relative tumor reproduction rate T/C (%) on human liver cancer cell bel-7402 transplantation tumor model in nude mice [5, 9] [%]	Inhibition rate, growth of human lung cancer cell A549 [6, 10] [%]	Relative tumor reproduction rate T/C (%) on human lung cancer A549 transplantation tumor in nude mice [7] [%]	Inhibition rate, growth of HUVEC cell [8] [%]	Inhibition rate, adhesion ability of human lung cancer cell A549 (lung cancer cell A549) [%]	Inhibition rate, growth of human lung cancer cell A549 [6] [%]	Relative tumor reproduction rate T/C (%) on human liver cancer cell bel-7402 transplantation tumor model in nude mice ([5]; mouse, in vivo, po) [%]
CNC(=O)c1ncc(Oc2ccc(NC(=O)Nc3ccc(Cl)c(C(F)(F)F)c3)cc2)c(OC)n1 [Compound 7, N-(4-chloro-3-(trifluoromethyl)phenyl)-N′-(4-(2-(N-methylaminoformoxyl)-5-(4-methoxypyrimidinyl)oxy)phenyl)urea]	40.1	60.34	89.34	21.5	99.1	21.2	34.2	45.30	39.3	8.30	68.34	–	–
O=C(Nc1ccc(Oc2ccnc3ccccc23)cc1)Nc1ccc(Cl)c(C(F)(F)F)c1 [Compound A′, reference compound]	–	60.51	63.51	–	–	34.2	37.2	–	43.2	23.11	71.55	58.51	–
O=C(Nc1ccc(Oc2ccncn2)cc1)Nc1ccc(Cl)c(C(F)(F)F)c1 [Compound B′, reference compound]	–	61.62	61.60	–	–	30.4	–	–	40.4	31.64	69.26	61.62	30.4
N-(4-fluoro-3-(trifluoromethyl)phenyl)-N′-(4-(4-pyrryl)oxy)phenyl)urea [Compound C′, reference compound]	–	60.50	63.20	–	–	35.6	32.6	–	36.6	22.27	68.62	62.25	–
CNC(=O)c1ncc(Oc2ccc(NC(=O)Nc3ccc(F)c(C(F)(F)F)c3)cc2)c(OC)n1 [Compound 8, N-(4-fluoro-3-(trifluoromethyl)phenyl)-N′-(4-(2-(N-methylaminoformoxyl)-5-(4-methoxypyrimidinyl)oxy)phenyl)urea]	37.6	78.59	89.56	58.2	–	29.1	30.6	60.67	30.5	13.67	61.56	–	–

Source: patent US8957087B2, “Heterocyclic substituted acardite derivate and application thereof” (Jiangsu Provincial Institute of Materia Medica Co., Ltd., priority 2009, dated 2015)
